Data on six molecules can be found in patent US20250049970A1, “DLL3 TARGETING PEPTIDES AND CONSTRUCTS THEREOF” (MARIANA ONCOLOGY INC., priority 2023, published 2025).

SMILES strings stand for the structures. pKd: −log10 of the molar value. *1 amine or outer side, *2 acyl side, *3 side chain or, on linkers, in order; H or OH if unused. Where a SMILES comes first, the peptide text is derived from it. Bridges are numbered along the chain shown (N, C = ends). [ ]: non-standard residue; d: D form. The star is where a group is joined. Ala(piperidin-4-yl) = O=C([C@H](CC1CCN([*:3])CC1)N[*:1])[*:2]; DOTA = O=C(O)CN1CCN(CC(=O)O)CCN(CC(=O)*)CCN(CC(=O)O)CC1; X5 = O=C(Cc1ccc(Br)cc1)NCCOCCOCCOCCOCCOCCOCCOCCOCC(=O)*; Trp(7-Me) = Cc1cccc2c(C[C@H](N)C(=O)O)c[nH]c12; Trp(1-Me) = Cn1cc(C[C@H](N)C(=O)O)c2ccccc21; NMeW = CN[C@@H](Cc1c[nH]c2ccccc12)C(=O)O; 2Nal = N[C@@H](Cc1ccc2ccccc2c1)C(=O)O; NMeD = CN[C@@H](CC(=O)O)C(=O)O; Chg = N[C@H](C(=O)O)C1CCCCC1; CH2 = C([*:1])[*:2] Bounds are passed on as bounds.

The target in one test is T1, DLL3 (Homo sapiens, UniProt Q9NYJ7).
T1 sequence (Q9NYJ7 27-618): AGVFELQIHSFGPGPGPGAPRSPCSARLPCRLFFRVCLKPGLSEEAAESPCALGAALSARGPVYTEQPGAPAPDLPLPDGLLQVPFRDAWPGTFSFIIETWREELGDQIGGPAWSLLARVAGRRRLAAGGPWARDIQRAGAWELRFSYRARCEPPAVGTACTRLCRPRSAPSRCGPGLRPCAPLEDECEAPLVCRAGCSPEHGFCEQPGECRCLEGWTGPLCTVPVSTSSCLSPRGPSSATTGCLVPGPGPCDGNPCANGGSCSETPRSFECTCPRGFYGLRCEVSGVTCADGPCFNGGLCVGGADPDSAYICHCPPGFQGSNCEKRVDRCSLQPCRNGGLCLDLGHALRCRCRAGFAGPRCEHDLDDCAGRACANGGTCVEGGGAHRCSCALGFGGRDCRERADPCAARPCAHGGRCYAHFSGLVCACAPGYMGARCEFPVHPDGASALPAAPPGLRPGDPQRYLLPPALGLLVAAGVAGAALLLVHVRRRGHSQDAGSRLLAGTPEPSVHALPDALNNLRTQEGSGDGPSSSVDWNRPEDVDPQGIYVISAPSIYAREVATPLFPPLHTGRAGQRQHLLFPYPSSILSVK
The test is described as follows: SPR KD, biotinylated human DLL3 on streptavidin chip (Table 8). Also on record: biotin (biotinylated). To be noted: SPR KD, biotinylated human DLL3 on streptavidin sensor chip, 25° C., 1:1 binding model. From the text:
Biotinylated target ligand human DLL3 was immobilized on a streptavidin sensor chip. A reference surface was set up for nonspecific binding and refractive index changes. […] Sensorgram curves were fitted with 1:1 binding model, and affinity and kinetic parameters were obtained using Biacore Insight evaluation 4.0. software.
For orientation: pKd means the Kd on a negative log10 scale, so that one unit is a factor of ten. Molecule `CC(=O)N[C@@H](Cc1c[nH]c2ccccc12)C(=O)N[C@H](C(=O)N[C@H](C(=O)N[C@H]1CSSC[C@@H](C(=O)N[C@@H](Cc2c[nH]c3ccccc23)C(=O)N2CCC[C@H]2C(=O)N[C@H](CCCCNC(=O)COCCOCCOCCOCCOCCOCCOCCOCCNC(=O)Cc2ccc(Br)cc2)C(N)=O)NC(=O)[C@H](CC(=O)O)NC(=O)[C@H](CCCCNC(=O)CN2CCN(CC(=O)O)CCN(CC(=O)O)CCN(CC(=O)O)CC2)NC(=O)[C@H](Cc2ccc3ccccc3c2)NC(=O)[C@H](CC(N)=O)NC(=O)[C@H](CC2CCNCC2)NC1=O)C1CCCCC1)[C@@H](C)O` [compound 421] (Ac-WT[Chg]C[Ala(piperidin-4-yl)]N[2Nal]K(DOTA)DCWP[dK](X5)-NH2; disulfide 4-10) showed a pKd of over 9.00.

Still in this test, the particulars now being: biotinylated human DLL3 on streptavidin sensor chip, 25° C., 1:1 binding model; read-out: SPR KD.
As to `CC[C@H](C)[C@H](NC(=O)[C@H](C)NC(=O)[C@H](Cc1c[nH]c2ccccc12)NC(=O)[C@H](CCSC)NC(C)=O)C(=O)N[C@H]1CSSC[C@@H](C(=O)N[C@@H](Cc2c[nH]c3ccccc23)C(=O)N2CCC[C@H]2C(N)=O)NC(=O)[C@H](CC(=O)O)NC(=O)[C@H](Cc2cnc[nH]2)NC(=O)[C@H](Cc2c[nH]c3ccccc23)NC(=O)[C@H](CC(N)=O)NC(=O)[C@H](CC(N)=O)NC1=O` [compound 13, Ac-M-W-(L-Ala)-I-C(3)-N-N-W-H-D-C(3)-W-P-CONH2] (Ac-MWAICNNWHDCWP-NH2; disulfide 5-11), the pKd is 7.00 to 8.00. On the same count and under the same terms, to `CC[C@H](C)[C@H](NC(=O)[C@@H](NC(=O)[C@H](Cc1c[nH]c2ccccc12)N(C)C(C)=O)[C@@H](C)O)C(=O)N[C@H]1CSSC[C@@H](C(=O)N[C@@H](Cc2c[nH]c3ccccc23)C(=O)N2CCC[C@H]2C(=O)O)NC(=O)[C@H](CC(=O)O)NC(=O)[C@H](Cc2c[nH]cn2)NC(=O)[C@H](Cc2c[nH]c3ccccc23)NC(=O)[C@H](CC(N)=O)NC(=O)[C@H](CC(N)=O)NC1=O` [compound 382, Ac-(NmeW)-T-I-C(3)-N-N-W-H-D-C(3)-W-P-CONH2] (Ac-[NMeW]TICNNWHDCWP-OH; disulfide 4-10) belongs 7.00 to 8.00; to `CC[C@H](C)[C@H](NC(=O)[C@@H](NC(=O)[C@H](Cc1c[nH]c2ccccc12)NC(=O)[C@H](CCSC)NC(C)=O)[C@@H](C)O)C(=O)N[C@H]1CSSC[C@@H](C(=O)N[C@@H](Cc2c[nH]c3ccccc23)C(=O)N2CCC[C@H]2C(N)=O)NC(=O)[C@H](CC(=O)O)NC(=O)[C@H](Cc2cnc[nH]2)NC(=O)[C@H](Cc2cn(C)c3ccccc23)NC(=O)[C@H](CC(N)=O)NC(=O)[C@H](CC(N)=O)NC1=O` [compound 42, Ac-M-W-T-I-C(3)-N-N-(1Me-W)-H-D-C(3)-W-P-CONH2] (Ac-MWTICNN[Trp(1-Me)]HDCWP-NH2; disulfide 5-11), 7.00 to 8.00; to `CC(=O)N[C@@H](Cc1c[nH]c2c(C)cccc12)C(=O)N[C@H](C(=O)N[C@H](C(=O)N[C@H]1CSCSC[C@@H](C(=O)N[C@@H](Cc2c[nH]c3ccccc23)C(=O)N2CCC[C@H]2C(N)=O)NC(=O)[C@H](CC(=O)O)NC(=O)[C@H](CCCCNC(=O)CN2CCN(CC(=O)O)CCN(CC(=O)O)CCN(CC(=O)O)CC2)NC(=O)[C@H](Cc2ccc3ccccc3c2)NC(=O)[C@H](CC(N)=O)NC(=O)[C@H](CC2CCNCC2)NC1=O)C1CCCCC1)[C@@H](C)O` [compound 428, Ac-(7Me-Trp)-T-(Chg)-C(1)-[3-(4-piperidinyl)-Ala]-N-(2Nal)-Lys(DOTA)-D-C(1)-W-P-NH2] (Ac-[Trp(7-Me)]T[Chg]C[Ala(piperidin-4-yl)]N[2Nal]K(DOTA)DCWP-NH2; linker 4-10 via CH2), over 9.00. On the same count and under the same terms, for `CC[C@H](C)[C@H](NC(=O)[C@@H](NC(=O)[C@H](Cc1c[nH]c2ccccc12)NC(C)=O)[C@@H](C)O)C(=O)N[C@H]1CSSC[C@@H](C(=O)N[C@@H](Cc2c[nH]c3ccccc23)C(=O)N2CCC[C@H]2C(N)=O)NC(=O)[C@H](CC(=O)O)N(C)C(=O)[C@H](Cc2cnc[nH]2)NC(=O)[C@H](Cc2c[nH]c3ccccc23)NC(=O)[C@H](CC(N)=O)NC(=O)[C@H](CC(N)=O)NC1=O` [compound 388, Ac-W-T-I-C(3)-N-N-W-H-(NmeD)-C(3)-W-P-CONH2] (Ac-WTICNNWH[NMeD]CWP-NH2; disulfide 4-10) the value was 6.52 to 7.00.
